Experimental data taken from PubChem BioAssay (NCI).
“And” between values parts separate entries of the source, which are not always exact repeats. Identical values can stand only once.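 Briefly, cells in 96-well plates were exposed to five compound concentrations for 48 h, and endpoints were estimated by linear interpolation. Here, GI50 denotes the concentration required for 50% inhibition of growth. TGI marks complete inhibition of growth.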

Legend:
Test in all cases: DTP human tumour cell line panel, 48 h
SN12C renal = tested on: SN12C renal
HOP-62 NSCLC = tested on: HOP-62 NSCLC
HCT-15 colon = tested on: HCT-15 colon
RPMI-8226 leukemia = tested on: RPMI-8226 leukemia
BT-549 breast = tested on: BT-549 breast
SR leukemia = tested on: SR leukemia
RXF 393 renal = tested on: RXF 393 renal
MCF7 breast = tested on: MCF7 breast
ACHN renal = tested on: ACHN renal
PC-3 prostate = tested on: PC-3 prostate

SMILES	GI50 (SN12C renal)	TGI (SN12C renal)	GI50 (HOP-62 NSCLC)	TGI (HOP-62 NSCLC)	GI50 (HCT-15 colon)	TGI (HCT-15 colon)	GI50 (RPMI-8226 leukemia)	TGI (RPMI-8226 leukemia)	GI50 (BT-549 breast)	TGI (BT-549 breast)	GI50 (SR leukemia)	TGI (SR leukemia)	GI50 (RXF 393 renal)	TGI (RXF 393 renal)	GI50 (MCF7 breast)	TGI (MCF7 breast)	GI50 (ACHN renal)	TGI (ACHN renal)	GI50 (PC-3 prostate)	TGI (PC-3 prostate)
O=C(CN(/C=C/C(=O)C(F)(F)F)c1ccc(Cl)cc1)c1ccccc1	16 µM	34.2 µM	11.4 µM	24.5 µM	15.1 µM	38.7 µM	12.9 µM	89.3 µM	20.5 µM	41.4 µM	14.8 µM	57 µM	21.7 µM	43.5 µM	> 100 µM	> 100 µM	13.7 µM	28.9 µM	17 µM	35.3 µM
COC1CCN(C(=O)c2cc(Cc3n[nH]c(=O)c4ccccc34)ccc2F)CC1	67.5 µM	> 100 µM	33.4 µM	> 100 µM	> 100 µM	> 100 µM	60.9 µM	> 100 µM	28.8 µM	> 100 µM	21.7 µM	> 100 µM	0.926 µM	45.2 µM	60.8 µM	> 100 µM	> 100 µM	> 100 µM	> 87.6 µM	> 100 µM
CC(=O)c1cc(C(=O)c2ccc3c(c2)Sc2ccccc2N3)c2c(C)cc(C)cn12	0.724 µM	> 100 µM	0.394 µM	> 63 µM	0.344 µM	> 100 µM	0.361 µM	> 27.9 µM	0.368 µM	> 21.3 µM	0.302 µM	> 100 µM	0.162 µM	0.699 µM	0.239 µM	> 100 µM	0.605 µM	> 40.1 µM	0.362 µM	> 100 µM
CN(C)CCNC(=O)C(C)(C)Oc1ccc(C(=O)c2ccc(Cl)cc2)cc1Cl	3.59 µM	26.7 µM	–	23.9 µM	2.71 µM	7.12 µM and 11.2 µM	3.32 µM	> 48.7 µM	–	23.9 µM	3.48 µM	> 100 µM	9.94 µM	21.7 µM	3.8 µM	24.3 µM	–	23 µM	5.84 µM	24 µM
Clc1cccc(Cl)c1C1CSc2ccccc2N=C1c1ccccc1 (configuration not stated)	3.35 µM	12.3 µM	20.7 µM	41 µM	1.66 µM	3.98 µM	2.46 µM	7.1 µM	5.19 µM	17.1 µM	3.42 µM	> 100 µM	9.74 µM	24.1 µM	0.595 µM	11.6 µM	2.45 µM	7.3 µM	5.6 µM	20.9 µM
C=CC(=O)NCc1cccc(Nc2ncc(Br)c(NCCCNC(=O)C3CCC3)n2)c1	0.621 µM and 0.45 µM	12.5 µM and > 25 µM	0.448 µM and 0.152 µM	9.77 µM and 4.33 µM	2.27 µM and 2.65 µM	12.5 µM and 13.2 µM	1.92 µM and 1.88 µM	8.19 µM and > 25 µM	0.698 µM and 0.515 µM	2.55 µM and 2.42 µM	0.394 µM	12.5 µM	0.166 µM and 0.123 µM	0.844 µM and 0.468 µM	1.88 µM and 0.537 µM	12.5 µM and 4.77 µM	1.66 µM and 0.712 µM	12.5 µM and > 25 µM	1.55 µM and 0.933 µM	12.5 µM and 7.04 µM
CC(C)(C)C(=O)OCOP(=O)(OCOC(=O)C(C)(C)C)C1CC(O)N(O)C1=O (configuration not stated)	2.87 µM	9.56 µM	5.28 µM	26.8 µM	4.28 µM	> 100 µM	2.88 µM	14.6 µM	2.96 µM	8.63 µM	4.2 µM	75.2 µM	2.37 µM	7.71 µM	3.32 µM	> 100 µM	6.04 µM	> 100 µM	8.81 µM	> 100 µM
CCCCCCCCCCCCCC1=NCCN1CCO	2.57 µM	6.47 µM	5.62 µM	12.7 µM	1.92 µM	4.77 µM	6.5 µM	> 81.5 µM	13.4 µM	31.8 µM	3.75 µM	> 100 µM	2.72 µM	7.43 µM	2.4 µM	6.89 µM	2.04 µM	4.68 µM	3.37 µM	> 34.5 µM
COC(=O)[C@]12CC[C@@H](C)[C@H](C)[C@@H]1C1=CC[C@@H]3[C@@]4(C)C(C=O)=C[C@@](C)(COC(C)=O)C4=CC[C@@]3(C)[C@]1(C)CC2	6.12 µM	28.1 µM	11.7 µM	29.3 µM	3.38 µM	12.1 µM	2 µM	5.7 µM	6.9 µM	25.9 µM	2.22 µM	7.83 µM	3.55 µM	14.1 µM	2.99 µM	12.5 µM	3.12 µM	12.4 µM	3.07 µM	13.9 µM
